In US11091769B2, “Development and use of modified plants and seeds that are resistant to herbicides and environmental stress” (Texas State University, priority 2017, dated 2021):

Legend:
[1] = test system: Arabidopsis seedlings (primary root growth); experiment: Root growth inhibition assay; type: in vivo, Arabidopsis thaliana; conditions: for root growth sensitivity of PIC30-OX lines: all four PIC30-OX lines; for primary root growth sensitivity of pic30 mutants: pic30-1, pic30-2 and pic30-3, incremental concentrations; for inhibition at 0.1 µM: 100 nM picloram; for primary root growth inhibition: media containing 10 pM picloram
Protocol: For root growth inhibition assays, 4-5 day old seedlings were transferred to control media and media containing indicated concentrations of different auxins. Primary root lengths were measured after 4 days of incubation, and percentage root growth inhibition was calculated.

DR5::GFP auxin sensor = experiment: Auxin induced DR5::GFP expression; type: in vivo, Arabidopsis thaliana; conditions: pic30-3 crossed with DR5::GFP; 5 day-old seedlings; 20 hours incubation
Protocol: To test auxin induced DR5::GFP expression, 5 day-old seedlings were transferred to control media and media containing indicated concentrations of different auxins. Plates were incubated for 20 hours at 21° C. under continuous light. Confocal images were acquired after the incubation period.
Confocal images were acquired using either 20× water immersion or 60× oil immersion lenses with Fluoview™ FV1000 laser scanning confocal microscope (Olympus). While making a quantitative comparison between one or more confocal images, similar laser intensity and transmittance light were used.

[2] = test system: Arabidopsis apical root sections (PIC30 transporter); experiment: In planta radioactive transport assay; parameters: species or system Arabidopsis thaliana
Protocol: In planta transport assays were performed according to a protocol described elsewhere (Ito and Gray, Plant Physiology 142, 63-74, 2006) with few modifications. 15 mm root sections (at root tip) from 9 day-old seedlings were excised and incubated in transport assay buffer (TAB, 20 mM MES-KOH, pH 5.6, 10 mM sucrose and 0.5 mM CaCl2) for 30 minutes. Root sections were then transferred to the TAB containing 1.5 nM of ^14C picloram and 10 pM of unlabeled picloram or 7.9 nM of ^3H IAA and incubated for 1-6 hours at room temperature. Following thorough rinsing with cold TAB buffer, root sections were transferred to scintillation vials containing 1 ml of scintillation liquid. Radioactivity was measured using scintillation counter (Beckman Coulter, Calif.).

[3] = test system: Arabidopsis seedlings and plants; experiment: In planta chlorate sensitivity test; type: in vivo, Arabidopsis thaliana
Protocol: For chlorate sensitivity testing at the seedling stage, seeds were plated onto either control media or media containing 1-1.5 mM sodium chlorate. Plates were incubated under continuous light at 21° C. for 9 days. After the incubation, representative images were acquired using DSLR (PENTAX) camera.
(§1) For chlorate and picloram sensitivity testing at the adult stage, 7 day-old seedlings were transferred to soil (Fafard growing mix 2) and grown under continuous light for an additional 12 days. To test chlorate sensitivity, plants were then irrigated with 1 mM sodium chlorate solution on alternating days. Chlorate induced leaf bleaching were examined and imaged after 10-12 days. To test picloram sensitivity, plants were sprayed with 200 g/ha of picloram. Images were acquired 14-18 days after the treatment.

Arabidopsis plants = experiment: Foliar picloram sensitivity test at the adult stage; type: in vivo, Arabidopsis thaliana
Protocol: as §1, with “To test picloram sensitivity, plants were sprayed with 200 g/ha of picloram.” left out

[4] = test system: PIC30pro::PIC30-GUS expression; experiment: PIC30-GUS expression, quantitative MUG assay; type: in vivo, Arabidopsis thaliana; conditions: 5 day old PIC30pro::PIC30-GUS seedlings; 25 pM picloram; indicated time intervals
Protocol: To study the effect of picloram on PIC30 expression, 5 day old PIC30pro::PIC30-GUS seedlings were treated with 25 pM picloram in liquid media. They were incubated under continuous light at 21° C. without shaking, and samples were collected at different time intervals and frozen in liquid nitrogen. PIC30-GUS expression was determined through quantitative MUG assay.
Quantification of GUS expression was performed by fluorometric MUG (4-methylumbelliferyl-beta-D-glucuronide) assay following protocol described elsewhere (Parry et al. The Plant Cell 18, […], 2006) and the fluorescence was measured using a Fluorometer (Modulus, Turner Biosystems).

## O=C(O)Cc1cccc2ccccc12 [1-NAA, 1-Naphthaleneacetic acid]
[1]; 4 days incubation
  root growth sensitivity of PIC30-OX lines: wild-type sensitivity
  primary root growth sensitivity of pic30 mutants: wild type sensitivity

## O=C(O)COc1ccc(Cl)cc1Cl [2,4-D, 2,4-dichlorophenoxyacetic acid]
[1]; 4 days incubation
  primary root growth sensitivity of pic30 mutants: wild type sensitivity
DR5::GFP auxin sensor
  DR5::GFP expression in pic30-3: upregulated

## O=C(O)Cc1c[nH]c2ccccc12 [IAA, indole-3-acetic acid]
[1]; 4 days incubation
  root growth sensitivity of PIC30-OX lines: wild-type sensitivity
  primary root growth sensitivity of pic30 mutants: wild type sensitivity
DR5::GFP auxin sensor
  DR5::GFP expression in pic30-3: upregulated
[2]; 3H-IAA, 15 mm apical root sections
  IAA uptake, wild type versus pic30-3: no difference

## Nc1cc(Cl)nc(C(=O)O)c1Cl [aminopyralid]
[1]; 4 days incubation
  primary root growth sensitivity of pic30 mutants: insensitive
DR5::GFP auxin sensor
  DR5::GFP expression in pic30-3: not

## [O-][Cl+2]([O-])O [chlorate, sodium chlorate]
[3]; PIC30-OX lines, adult stage, irrigated with chlorate solution
  chlorate sensitivity: wild-type sensitivity
[3]; all four PIC30-OX lines, seedling stage
  chlorate sensitivity: hypersensitivity
[3]; pic30-1, seedling and adult stages
  chlorate induced cotyledon and leaf bleaching: pronounced cotyledon and leaf bleaching
[3]; pic30-2, seedling and adult stages
  chlorate induced cotyledon and leaf bleaching: pronounced cotyledon and leaf bleaching
[3]; pic30-3, seedling and adult stages
  chlorate induced necrosis and leaf bleaching: insensitive
[3]; wild type, seedling (1-1.5 mM sodium chlorate, 9 days) and adult (1 mM irrigation) stages
  chlorate induced cotyledon and leaf bleaching: pronounced cotyledon and leaf bleaching

## Nc1c(Cl)c(Cl)nc(C(=O)O)c1Cl [picloram]
[1]; Arabidopsis thaliana, 96 h, PIC30-OX lines, 4 days incubation
  inhibition at 0.1 µM: 87 to 89%
[1]; Arabidopsis thaliana, 96 h, four PIC30-OX lines (PIC30-GFP in pic30-3), 10 pM picloram, 4 days incubation
  inhibition at 10 pM: 97 to 98%
[1]; Arabidopsis thaliana, 96 h, pic30-3, 4 days incubation
  inhibition at 0.1 µM: ~10%
[1]; Arabidopsis thaliana, 96 h, wild type, 4 days incubation
  inhibition at 0.1 µM: ~10%
[1]; 4 days incubation
  primary root growth sensitivity of pic30 mutants: highly insensitive
[1]; pic30-3 mutant, 4 days incubation
  primary root growth inhibition: 46%
[1]; three independent homozygous pic30-1-OX lines in wild type background
  primary root growth sensitivity of pic30-1-OX lines: insensitive
[1]; wild type, 4 days incubation
  primary root growth inhibition: approximately 73%
Arabidopsis plants; PIC30-OX adult plants, 100 g/ha
  response to foliar treatment: hypersensitive
Arabidopsis plants; pic30-1, pic30-2, pic30-3 adult plants, 200 g/ha sprayed
  response to foliar treatment: highly insensitive
DR5::GFP auxin sensor
  DR5::GFP expression in pic30-3: not
[2]; pic30-3, 14C-picloram, 15 mm root sections of 9 day-old seedlings
  picloram uptake in pic30-3 versus wild type root sections: significantly lower
[2]; two PIC30-OX lines, 14C-picloram, 15 mm apical root sections
  picloram uptake relative to wild type roots: 26-30 times
[4]
  effect on PIC30 gene expression: did not have influence
